The values that follow are results of earlier work, collected in patent publication US20180193304A1, “PHYTOTERPENOID FACILITATION OF THERAPEUTIC ONSET AND EFFICACY OF SUBLINGUAL CANNABINOID ADMINISTRATION” (JC Pharma Inc., priority 2017, published 2018).

Data set [1] concerns inflammation. The following applies: compared to steroid alternatives.
Data set [2] concerns the target T1, CB2 receptor (Homo sapiens, UniProt P34972).
The target in data set [3] is T1, CB2 receptor. This is another data set of the same source.
In data set [4] the test system is inflammation. The following applies: mouse, in vivo.
Data set [5] deals with experimental airways allergic inflammation. The following applies: oral.

T1 sequence (P34972 whole entry): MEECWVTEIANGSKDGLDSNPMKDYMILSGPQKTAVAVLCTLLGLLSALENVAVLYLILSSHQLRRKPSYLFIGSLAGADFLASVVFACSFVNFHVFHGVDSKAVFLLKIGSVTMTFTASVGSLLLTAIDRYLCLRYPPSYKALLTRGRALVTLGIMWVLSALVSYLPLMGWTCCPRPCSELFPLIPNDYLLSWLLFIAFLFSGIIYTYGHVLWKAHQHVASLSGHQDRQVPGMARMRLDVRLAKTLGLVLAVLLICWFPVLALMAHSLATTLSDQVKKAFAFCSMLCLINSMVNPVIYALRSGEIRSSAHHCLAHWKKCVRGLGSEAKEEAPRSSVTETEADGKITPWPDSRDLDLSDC

Consider `C=C1CC/C=C(\C)CC[C@@H]2[C@@H]1CC2(C)C` [β-caryophyllene], for which the anti-inflammatory response entry with inflammation [1] was “comparable anti-inflammatory responses to steroid alternatives”. The “functional activity at CB2 receptor” value on CB2 receptor [2] is given as “functional CB2 agonist”. Also, the “binding to the CB2 receptor” value on CB2 receptor [3] is recorded as “selectively binds to the CB2 receptor”.

Take `C/C1=C\CC/C(C)=C/CC(C)(C)/C=C/C1` [humulene]: the anti-inflammatory response entry in the data set with inflammation [1] is listed as “comparable anti-inflammatory responses to steroid alternatives”. Moreover, the “reduction of inflammation and pain relief” value in the data set on inflammation [4] was “effective in reducing inflammation and offering pain relief”. Further, the reduction of inflammation result in data set [5] was “highly effective at reducing inflammation”.
